Measured values from patent US8937089B2, “Synergistic mixtures of anthranilamide invertebrate pest control agents” (priority 2004, dated 2015).

How the values were obtained:
Test in all cases: whole plant or invertebrate
Type in all cases: in vivo
[1] = test system: cotton melon aphid (Aphis gossypii Glover)
Outline: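 Sprays in acetone–water with 300 ppm non-ionic surfactant, at ppm concentrations, applied to aphid-infested (30–40 per plant) 6–7-day cotton, in triplicate. Evaluation after 6 days in a growth chamber at 19–21 °C and 50–70% relative humidity, covering contact and/or systemic action.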

[2] = test system: potato leafhopper (Empoasca fabae Harris); settings: alone
Outline: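 Contact and/or systemic test: five adult leafhoppers aged 18–21 days were released onto Longio bean plants 1 h after spraying. The spray was 1 mL per unit in acetone/water (10:90) with 300 ppm non-ionic surfactant, run in triplicate. Plants were kept 6 days in a growth chamber at 19–21 °C and 50–70% humidity.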

[3] = test system: corn planthopper (Peregrines maidis); settings: Corn Plant Hopper
Outline: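 Contact/systemic test on corn planthopper: 10–20 nymphs (18- to 20-day-old) released onto young maize plants 1 h after spraying, with three replicate units per treatment. Spray solution was acetone/water 10:90 containing 300 ppm non-ionic spreader; units kept 6 days at 19-21° C., 50-70% RH.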

[4] = test system: silverleaf whitefly (Bemisia argentifolii Bellows and Perring); settings: Table 2B
Outline: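 Whitefly-egg-infested 12–14-day-old cotton plants sprayed with compound in 10% acetone/90% water plus 300 ppm non-ionic surfactant, in triplicate. Plants then held 13 days at 28 °C and 50–70% relative humidity before mortality assessment.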

[5] = test system: western flower thrip (Frankliniella occidentalis Pergande); settings: single compound, spray, 7 days
Outline: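 Bean plants aged 5–7 days received a spray of test solution (10% acetone, 90% water, 300 ppm surfactant), in triplicate. Adult thrips (22–27 per unit) were introduced once the plants had dried for 1 h. Incubation lasted 7 days at 25° C and 45–55% RH.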

[6] = test system: green peach aphid (Myzus persicae Sulzer); settings: Green Peach Aphid
Outline: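 Compounds formulated in 10% acetone/water with 300 ppm X-77 surfactant were atomized onto aphid-infested radish seedlings, with three replicates per treatment. Infestation was 30–40 aphids transferred on excised leaf pieces, covering contact and systemic exposure. Test units stayed 6 days in a growth chamber at 19–21 °C and 50–70% relative humidity.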

CCc1ccc(C(=O)NN(C(=O)c2cc(C)cc(C)c2)C(C)(C)C)cc1 [Tebufenozide]
mortality at 0.5 ppm ([1]; Aphis gossypii, rate 0.5 ppm, read-out: % mortality (obs)): 21% | mortality at 1.5 ppm ([1]; Aphis gossypii, rate 1.5 ppm, read-out: % mortality (obs)): 37% | mortality at 3 ppm ([1]; Aphis gossypii, rate 3 ppm, read-out: % mortality (obs)): 22% | mortality at 3 ppm ([2]; Empoasca fabae, rate 3 ppm, read-out: % mortality (obs)): 40% | mortality at 4 ppm ([2]; Empoasca fabae, rate 4 ppm, read-out: % mortality (obs)): 27% | mortality at 5 ppm ([2]; Empoasca fabae, rate 5 ppm, read-out: % mortality (obs)): 20% | mortality at 100 ppm ([3]; rate 100 ppm, read-out: % mortality (obs)): 12% | mortality at 1000 ppm ([3]; rate 1000 ppm, read-out: % mortality (obs)): 16% | mortality at 3000 ppm ([3]; rate 3000 ppm, read-out: % mortality (obs)): 12% | mortality at 100 ppm ([4]; Bemisia argentifolii, in Gossypium hirsutum, rate 100 ppm, read-out: % mortality (obs)): 2% | mortality at 1000 ppm ([4]; Bemisia argentifolii, in Gossypium hirsutum, rate 1000 ppm, read-out: % mortality (obs)): 6% | mortality at 3000 ppm ([4]; Bemisia argentifolii, in Gossypium hirsutum, rate 3000 ppm, read-out: % mortality (obs)): 7% | mortality at 100 ppm ([5]; Frankliniella occidentalis, 168 h, rate 100 ppm, read-out: % mortality (obs)): 70% | mortality at 1000 ppm ([5]; Frankliniella occidentalis, 168 h, rate 1000 ppm, read-out: % mortality (obs)): 60% | mortality at 3000 ppm ([5]; Frankliniella occidentalis, 168 h, rate 3000 ppm, read-out: % mortality (obs)): 60% | mortality at 100 ppm ([6]; Myzus persicae, in Raphanus sativus, rate 100 ppm, read-out: % mortality (obs)): 8% | mortality at 1000 ppm ([6]; Myzus persicae, in Raphanus sativus, rate 1000 ppm, read-out: % mortality (obs)): 7% | mortality at 3000 ppm ([6]; Myzus persicae, in Raphanus sativus, rate 3000 ppm, read-out: % mortality (obs)): 9%

CS/C(C)=N\OC(=O)N(C)SN(C)C(=O)O/N=C(\C)SC [Thiodicarb]
% mortality (obs) ([1]; rate 3 ppm): 49% | % mortality (obs) ([1]; rate 10 ppm): 32% | % mortality (obs) ([1]; rate 30 ppm): 69% | % mortality (obs) ([2]; rate 0.08 ppm): 0% | % mortality (obs) ([2]; rate 0.16 ppm): 20% | % mortality (obs) ([2]; rate 0.4 ppm): 20% | % mortality (obs) ([3]; rate 0.08 ppm): 2% | % mortality (obs) ([3]; rate 0.16 ppm): 6% | % mortality (obs) ([3]; rate 0.4 ppm): 7% | % mortality (obs) ([4]; rate 100 ppm): 1% | % mortality (obs) ([4]; rate 1000 ppm): 0% | % mortality (obs) ([4]; rate 3000 ppm): 6% | % mortality (obs) ([5]; rate 20 ppm): 60% | % mortality (obs) ([5]; rate 200 ppm): 80% | % mortality (obs) ([6]; rate 20 ppm): 10% | % mortality (obs) ([6]; rate 150 ppm): 17% | % mortality (obs) ([6]; rate 900 ppm): 98%

Acetamiprid
% mortality (obs) ([1]; rate 0.02 ppm): 42% | % mortality (obs) ([1]; rate 0.08 ppm): 67% | % mortality (obs) ([1]; rate 0.4 ppm): 100% | % mortality (obs) ([2]; rate 1 ppm): 27% | % mortality (obs) ([2]; rate 4 ppm): 60% | % mortality (obs) ([2]; rate 12 ppm): 87% | % mortality (obs) ([3]; rate 0.3 ppm): 43% | % mortality (obs) ([3]; rate 0.4 ppm): 85% | % mortality (obs) ([3]; rate 0.5 ppm): 100% | % mortality (obs) ([4]; rate 1 ppm): 3% | % mortality (obs) ([4]; rate 5 ppm): 45% | % mortality (obs) ([4]; rate 20 ppm): 83% | % mortality (obs) ([5]; rate 1 ppm): 70% | % mortality (obs) ([5]; rate 100 ppm): 90% | % mortality (obs) ([5]; rate 3000 ppm): 100% | % mortality (obs) ([6]; rate 0.2 ppm): 27% | % mortality (obs) ([6]; rate 0.4 ppm): 52% | % mortality (obs) ([6]; rate 0.6 ppm): 46%

Cartap
% mortality (obs) ([1]; rate 0.2 ppm): 29% | % mortality (obs) ([1]; rate 2 ppm): 34% | % mortality (obs) ([1]; rate 200 ppm): 83% | % mortality (obs) ([2]; rate 0.1 ppm): 20% | % mortality (obs) ([2]; rate 1 ppm): 73% | % mortality (obs) ([2]; rate 10 ppm): 100% | % mortality (obs) ([3]; rate 0.3 ppm): 100% | % mortality (obs) ([3]; rate 3 ppm): 100% | % mortality (obs) ([3]; rate 30 ppm): 100% | % mortality (obs) ([4]; rate 0.1 ppm): 0% | % mortality (obs) ([4]; rate 0.2 ppm): 0% | % mortality (obs) ([4]; rate 0.5 ppm): 0% | % mortality (obs) ([5]; rate 1 ppm): 40% | % mortality (obs) ([5]; rate 1000 ppm): 100% | % mortality (obs) ([5]; rate 3000 ppm): 100% | % mortality (obs) ([6]; rate 0.2 ppm): 11% | % mortality (obs) ([6]; rate 0.4 ppm): 26% | % mortality (obs) ([6]; rate 0.6 ppm): 17%

Chlorfenapyr
% mortality (obs) ([1]; rate 1 ppm): 27% | % mortality (obs) ([1]; rate 10 ppm): 57% | % mortality (obs) ([1]; rate 150 ppm): 67% | % mortality (obs) ([2]; rate 1 ppm): 73% | % mortality (obs) ([2]; rate 5 ppm): 100% | % mortality (obs) ([2]; rate 20 ppm): 100% | % mortality (obs) ([3]; rate 1.5 ppm): 31% | % mortality (obs) ([3]; rate 2.5 ppm): 15% | % mortality (obs) ([3]; rate 3.5 ppm): 11% | % mortality (obs) ([4]; rate 10 ppm): 6% | % mortality (obs) ([4]; rate 100 ppm): 14% | % mortality (obs) ([4]; rate 1000 ppm): 18% | % mortality (obs) ([5]; rate 5 ppm): 40% | % mortality (obs) ([5]; rate 20 ppm): 70% | % mortality (obs) ([5]; rate 150 ppm): 90% | % mortality (obs) ([6]; rate 1.5 ppm): 22% | % mortality (obs) ([6]; rate 7 ppm): 36% | % mortality (obs) ([6]; rate 35 ppm): 100%

Fipronil
% mortality (obs) ([1]; rate 2 ppm): 27% | % mortality (obs) ([1]; rate 4 ppm): 44% | % mortality (obs) ([1]; rate 8 ppm): 85% | % mortality (obs) ([2]; rate 0.5 ppm): 7% | % mortality (obs) ([2]; rate 1 ppm): 20% | % mortality (obs) ([2]; rate 1.5 ppm): 27% | % mortality (obs) ([3]; rate 0.5 ppm): 5% | % mortality (obs) ([3]; rate 1 ppm): 41% | % mortality (obs) ([3]; rate 1.5 ppm): 15% | % mortality (obs) ([4]; rate 50 ppm): 1% | % mortality (obs) ([4]; rate 100 ppm): 0% | % mortality (obs) ([4]; rate 1000 ppm): 13% | % mortality (obs) ([5]; rate 0.5 ppm): 100% | % mortality (obs) ([5]; rate 2 ppm): 100% | % mortality (obs) ([5]; rate 10 ppm): 100% | % mortality (obs) ([6]; rate 2 ppm): 17% | % mortality (obs) ([6]; rate 4 ppm): 31% | % mortality (obs) ([6]; rate 8 ppm): 50%

Novaluron
% mortality (obs) ([1]; rate 50 ppm): 28% | % mortality (obs) ([1]; rate 250 ppm): 30% | % mortality (obs) ([1]; rate 1000 ppm): 29% | % mortality (obs) ([2]; rate 250 ppm): 7% | % mortality (obs) ([2]; rate 500 ppm): 7% | % mortality (obs) ([2]; rate 1000 ppm): 0% | % mortality (obs) ([3]; rate 250 ppm): 7% | % mortality (obs) ([3]; rate 500 ppm): 5% | % mortality (obs) ([3]; rate 1000 ppm): 100% | % mortality (obs) ([4]; rate 2 ppm): 2% | % mortality (obs) ([4]; rate 10 ppm): 0% | % mortality (obs) ([4]; rate 250 ppm): 28% | % mortality (obs) ([5]; rate 1 ppm): 50% | % mortality (obs) ([5]; rate 100 ppm): 50% | % mortality (obs) ([5]; rate 1000 ppm): 80% | % mortality (obs) ([6]; rate 250 ppm): 14% | % mortality (obs) ([6]; rate 500 ppm): 24% | % mortality (obs) ([6]; rate 1000 ppm): 25%
